Test results reported in patent US11292758B2, “Compounds and methods for delivery of prostacyclin analogs” (United Therapeutics Corporation, priority 2003, dated 2022).

Columns and labels:
[1] = Treprostinil plasma concentrations in rats after a single oral dose of prodrugs (Example 2); format: in vivo, male Sprague-Dawley rats; settings: rat; for Treprostinil AUC compared with dosing the active compound: oral; for adverse reactions following oral administration: single oral dose
Procedure: In this Example, Treprostinil concentrations were determined in male Sprague-Dawley rats following a single oral dose of the following compounds:
A solution of treprostinil methyl ester was prepared by dissolving 2.21 mg of treprostinil methyl ester with 0.85 mL of dimethylacetamide (DMA). […] The final concentration of the dosing vehicle was 0.26 mg/mL of treprostinil methyl ester equivalent to 0.25 mg/mL of Treprostinil.
A solution of treprostinil benzyl ester was prepared by dissolving 2.58 mg of treprostinil benzyl ester with 0.84 mL of dimethylacetamide (DMA). […] The final concentration of the dosing vehicle was 0.268 mg/mL of treprostinil benzyl ester equivalent to 0.25 mg/mL of Treprostinil.
A solution of treprostinil diglycine was prepared by dissolving 1.86 mg of compound with 0.58 mL of dimethylacetamide (DMA). […] The final concentration of the dosing vehicle was 0.323 mg/mL of treprostinil diglycine equivalent to 0.25 mg/mL of Treprostinil.
Groups I-III were dosed on the same day.
Animals were dosed via oral gavage.
Plasma samples were analyzed as described in Example 1. In brief, Treprostinil was extracted from the plasma via liquid-liquid extraction then analyzed by LC/MS/MS. The analytical validation results were reported previously in Example 1. […] Samples were not assayed for unchanged prodrug.

[2] = Moisture sorption / hygroscopicity of treprostinil diethanolamine polymorphs; format: physicochemical; settings: for weight gain in humidity chamber: 23 days
Procedure: The initial material synthesized (termed Form A) was characterized using X-ray powder diffraction (XRPD), differential scanning calorimetry (DSC), thermogravimetry (TG), hot stage microscopy, infrared (IR) and Raman spectroscopy, and moisture sorption. The IR and Raman spectra for Form A are shown in FIGS. 16 and 17, respectively. […] The moisture sorption data are shown graphically in FIG. 19. […] In addition, hygroscopicity of treprostinil diethanolamine was evaluated in humidity chambers at approximately 52% RH and 68% RH. […] Upon desorption from 95% down to 5% RH, the sample loses approximately 47%.

[3] = Clinical Study 01-101: escalating doses of UT-15C oral solution; settings: for mean absolute bioavailability: based on historical intravenous treprostinil sodium data
Procedure: Prior to proceeding directly into clinical studies with a sustained release (SR) solid dosage form of UT-15C (treprostinil diethanolamine), a determination of the pharmacokinetics of an oral “immediate release” solution was performed.
A Safety, Tolerability, and Pharmacokinetic Study of Multiple Escalating Doses of UT-15C (Treprostinil Diethanolamine) Administered as an Oral Solution in Healthy Adult Volunteers (Including Study of Bioavailability).
Study endpoints included standard safety assessments (adverse events, vital signs, laboratory parameters, physical examinations, and electrocardiograms) as well as pharmacokinetic parameters.

[4] = Treprostinil plasma concentrations in rats after a single intraduodenal dose of prodrugs (Example 3); settings: rat; for Tmax (of Treprostinil) / Maximum Treprostinil concentrations: intraduodenal; for Maximum Treprostinil concentrations: 5 minutes post-dosing; for adverse reactions following intraduodenal administration: single intraduodenal dose
From the text: This example illustrates a pharmacokinetic study of treprostinil following administration of a single duodenal dose of treprostinil and various prodrugs of the present invention.
In this study, the area under the curve of Treprostinil in male Sprague-Dawley rats following a single intraduodenal dose of treprostinil monophosphate (ring), treprostinil monovaline (ring), treprostinil monoalanine (ring) or treprostinil monoalanine (chain), prodrugs of treprostinil was compared. The compounds were as follows:
This solution was further diluted with 1.50 mL of PEG 400:Polysorbate 80:Water, 40:1:49.
A 50 mg/mL solution of treprostinil monovaline (ring) was prepared in dimethylacetamide (DMA). A 25 μL aliquot of the 50 mg/mL stock solution was then diluted with 175 μL of DMA and 1.8 mL of PEG 400:Polysorbate 80:Water, 40:1:49.
This solution was further diluted with 1.60 mL of PEG 400:polysorbate 80:Water, 40:1:49. The final concentration of the dosing vehicle was 0.590 mg/mL of treprostinil monoalanine (ring) equivalent to 0.5 mg/mL of Treprostinil.
A solution of treprostinil monoalanine (chain) was prepared by dissolving 0.83 mg of treprostinil monoalanine (chain) in 0.14 mL of dimethylacetamide (DMA) until dissolved. This solution was further diluted with 1.26 mL of PEG 400:Polysorbate 80:Water, 40:1:49.
The plasma concentrations of Treprostinil following […] of each prodrug were evaluated in male Sprague-Dawley rats. […] All groups were dosed on day 1 of the study.
Animals were dosed via an indwelling duodenal cannula.
The blood samples were withdrawn and placed into tubes containing 30 μL of a solution of 500 units per mL of heparin in saline, and centrifuged at 13,000 rpm for 10 minutes. Approximately 200 μL of plasma was then removed and dispensed into appropriately labeled polypropylene tubes containing 4 μL of acetic acid in order to stabilize any prodrug remaining in the samples. The plasma samples were frozen at −20° C. and were transported on ice to Absorption Systems Exton Facility. There they were stored in a −80° C. freezer pending analysis.
Plasma samples were analyzed using the methods described above. In brief, Treprostinil was extracted from the plasma via solid phase extraction then analyzed by LC/MS/MS. The lower limit of quantification (LLOQ) of the analytical method was 0.03 ng/mL.
Pharmacokinetic analysis was performed on the plasma concentration of Treprostinil for each individual rat at each time point and on the average plasma concentration for all three rats in the group for each time point.
The following formula was used to determine relative bioavailability (F): Relative F=(AUC(Prodrug Dose)/Dose)/(AUC(Treprostinil Dose)/Dose)*100

[5] = subcutaneous infusion; cited from earlier work
[6] = slurry inter-conversion in isopropanol and tetrahydrofuran
From the text: Form A is made according to the methods in Table 15. Form B is made from Form A, in accordance with the procedures of Table 16.

CCCCC[C@@H](O)CC[C@@H]1C2Cc3cccc(OCC(=O)OCc4ccccc4)c3CC2C[C@H]1O (some centres unmarked) [Treprostinil benzyl ester, Benzyl Ester of Treprostinil]
Treprostinil AUC compared with dosing the active compound [1]: greater than that after dosing of the active compound
adverse reactions following oral administration [1]: No adverse reactions were observed

CCCCC[C@H](O)CC[C@@H]1[C@H]2Cc3cccc(OCC(=O)O)c3C[C@H]2C[C@H]1O.OCCNCCO [Form B]
weight loss in moisture sorption ([2]; 5% RH): minimal weight loss
water absorbed ([2]; 95% RH): approximately 49%
loss upon desorption ([2]; from 95% down to 5% RH): approximately 47%

CCCCC[C@H](O)CC[C@@H]1[C@H]2Cc3cccc(OCC(=O)O)c3C[C@H]2C[C@H]1O.OCCNCCO [UT-15C, Treprostinil Diethanolamine]
Treprostinil plasma concentrations detectable [3]: detectable in all subjects
changes in hematology, clinical chemistry, urinalysis, vital signs, physical exams, and ECGs [3]: no clinically significant, treatment emergent changes
most frequently reported adverse events [3]: flushing, headache, and dizziness
mean absolute bioavailability ([3]; 0.2 mg total dose): 21%
mean absolute bioavailability ([3]; 0.5 mg total dose): 23%
mean absolute bioavailability ([3]; 1.0 mg total dose): 24%
mean absolute bioavailability ([3]; 2.0 mg total dose): 25%
highest (treprostinil plasma) concentration observed ([3]; after the third dose aliquot of the 2.0 mg total dose): 5.51 ng/mL
tolerability ([3]; all doses given): well tolerated by the majority of subjects
AUCinf and Cmax versus dose ([3]; each of the four dose aliquots): increased in a linear fashion with dose
weight gain in humidity chamber ([2]; ~52% RH): 4.9%
weight gain in humidity chamber ([2]; ~68% RH): 28%

CCCCCC(O)CCC1C(OP(=O)(O)O)CC2Cc3c(cccc3OCC(=O)O)CC21 (centres unmarked) [treprostinil monophosphate (ring), 2-Monophosphate Ester of Treprostinil]
Tmax (of Treprostinil) [4]: 5 min
Maximum Treprostinil concentrations [4]: approximately 9 ng/mL
adverse reactions following intraduodenal administration [4]: No adverse reactions were observed

CCCCC[C@H](CC[C@@H]1C2Cc3cccc(OCC(=O)O)c3CC2C[C@H]1OC(=O)CN)OC(=O)CN (some centres unmarked) [Treprostinil diglycine, Bis-Glycyl Ester of Treprostinil]
Treprostinil AUC compared with dosing the active compound [1]: greater than that after dosing of the active compound
adverse reactions following oral administration [1]: No adverse reactions were observed

CCCCCC(O)CCC1C(OC(=O)C(N)C(C)C)CC2Cc3c(cccc3OCC(=O)O)CC21 [treprostinil monovaline (ring), 2-L-Valine Ester of Treprostinil]
Tmax (of Treprostinil) [4]: 120 min
adverse reactions following intraduodenal administration [4]: No adverse reactions were observed

CCCCC[C@H](O)CC[C@@H]1[C@H]2Cc3cccc(OCC(=O)OC)c3C[C@H]2C[C@H]1O [Treprostinil methyl ester, Methyl Ester of Treprostinil]
Treprostinil AUC compared with dosing the active compound [1]: less than that after dosing the active compound
adverse reactions following oral administration [1]: No adverse reactions were observed

CCCCC[C@@H](CC[C@@H]1[C@H]2Cc3cccc(OCC(=O)O)c3C[C@H]2C[C@H]1O)OC(=O)[C@H](C)N [treprostinil monoalanine (chain), 3′-L-Alanyl Ester of Treprostinil]
Tmax (of Treprostinil) [4]: 5 min
Maximum Treprostinil concentrations [4]: approximately 9 ng/mL
adverse reactions following intraduodenal administration [4]: No adverse reactions were observed

CCCCC[C@H](O)CC[C@@H]1[C@H]2Cc3cccc(OCC(=O)[O-])c3C[C@H]2C[C@H]1O.[Na+] [treprostinil sodium, (1R,2R,3aS,9aS)-[[2,3,3a,4,9,9a-Hexahydro-2-hydroxy-1-[(3S)-3-hydroxyoctyl]-1H-benz[f]inden-5-yl]oxy]acetic acid monosodium salt]
absolute bioavailability [5]: ~100%

CCCCCC(O)CCC1C(OC(=O)C(C)N)CC2Cc3c(cccc3OCC(=O)O)CC21 [treprostinil monoalanine (ring), 2-L-Alanine Ester of Treprostinil]
Tmax (of Treprostinil) [4]: 60 min
adverse reactions following intraduodenal administration [4]: No adverse reactions were observed

CCCCC[C@H](O)CC[C@@H]1[C@H]2Cc3cccc(OCC(=O)O)c3C[C@H]2C[C@H]1O.OCCNCCO [Form A]
thermodynamic stability of the crystal form [6]: metastable
hygroscopicity [2]: hygroscopic
weight gain during moisture sorption ([2]; beginning between 65 to 75% RH): > 33%
